Measurements: ChEMBL document CHEMBL3352488, “1,3-Dimethyl Benzimidazolones Are Potent, Selective Inhibitors of the BRPF1 Bromodomain” (ACS Med Chem Lett, 2014)
≈ marks a conversion by molar mass, not a printed value. Calls of active or inactive are those of the source. No cut-off for these calls is given here.

Legend:
[1] = target: Bromodomain-containing protein 4 (Homo sapiens, UniProt O60885, Y390A); assay: Binding affinity to 6His-tagged-BRD4 BD1 Y390A mutant (1 to 477 aa) (unknown origin) by TR-FRET competitive assay
[2] = target: Bromodomain-containing protein 4 (Homo sapiens) (UniProt O60885); assay: Binding affinity to His-tagged-BRD4 BD1 (1 to 477 aa) (unknown origin) by STD-NMR analysis
[3] = target: Bromodomain-containing protein 4 (Homo sapiens) (UniProt O60885); assay: Binding affinity to His-tagged-BRD4 BD1 (1 to 477 aa) (unknown origin) by STD-NMR analysis in presence of GW841819
[4] = Permeability of the compound across artificial lipid membrane; format: ADME; details: not told; read-out: permeability
[5] = Aqueous solubility of the compound in DMSO/phosphate buffered saline at pH7.4 by chemiluminescent nitrogen detection method; format: physicochemical; details: pH 7.4

| SMILES | IC50 [1] [µM] | further results |
| --- | --- | --- |
| COc1cccc(C(=O)Nc2cc3c(cc2C)n(C)c(=O)n3C)c1 | > 50.1 | – |
| Cn1c(=O)n(C)c2cc(C(N)=O)ccc21 | 79.4 | Activity [2]: Active; Activity [3]: inactive |
| COc1cccc(C(=O)Nc2ccc3c(c2)n(C)c(=O)n3C)c1 | 15.8 | – |
| COc1ccccc1C(=O)Nc1ccc2c(c1)n(C)c(=O)n2C | > 50.1 | – |
| Cc1ccc(S(=O)(=O)Nc2ccc3c(c2)n(C)c(=O)n3C)c(C)c1 | 2.51 | – |
| COc1ccccc1C(=O)Nc1cc2c(cc1N1CCCCC1)n(C)c(=O)n2C | – | Papp [4]: 35 ×10⁻⁶ cm/s; solubility kinetic [5]: 25 µM (≈ 9.86 µg/mL) |
